Reference: PubChem BioAssay (NCI)
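Following 48 hours of exposure in 96-well plates, responses at five concentrations were used to interpolate endpoints linearly. TGI marks complete inhibition of growth.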

Legend:
Test in all cases: NCI-60 cell line screen, 48 h
HCT-15 colon = test system: HCT-15 colon
DMS 273 small cell lung = test system: DMS 273 small cell lung
SNB-19 CNS = test system: SNB-19 CNS
M14 melanoma = test system: M14 melanoma
HL-60(TB) leukemia = test system: HL-60(TB) leukemia
NCI-H522 lung = test system: NCI-H522 lung
HT29 colon = test system: HT29 colon
KM12 colon = test system: KM12 colon
SF-268 CNS = test system: SF-268 CNS
OVCAR-5 ovarian = test system: OVCAR-5 ovarian
SW-620 colon = test system: SW-620 colon
ACHN renal = test system: ACHN renal
SNB-75 CNS = test system: SNB-75 CNS
OVCAR-8 ovarian = test system: OVCAR-8 ovarian
SR leukemia = test system: SR leukemia
NCI-H23 lung = test system: NCI-H23 lung
OVCAR-4 ovarian = test system: OVCAR-4 ovarian
CAKI-1 renal = test system: CAKI-1 renal
HCC-2998 colon = test system: HCC-2998 colon
SK-MEL-2 melanoma = test system: SK-MEL-2 melanoma
M19-MEL melanoma = test system: M19-MEL melanoma
OVCAR-3 ovarian = test system: OVCAR-3 ovarian
CCRF-CEM leukemia = test system: CCRF-CEM leukemia
HCT-116 colon = test system: HCT-116 colon
DMS 114 small cell lung = test system: DMS 114 small cell lung
SF-295 CNS = test system: SF-295 CNS
SN12C renal = test system: SN12C renal
786-0 renal = test system: 786-0 renal
COLO 205 colon = test system: COLO 205 colon
EKVX NSCLC = test system: EKVX NSCLC
A549 NSCLC = test system: A549 NSCLC
NCI-H226 lung = test system: NCI-H226 lung
UACC-257 melanoma = test system: UACC-257 melanoma
K-562 leukemia = test system: K-562 leukemia
SF-539 CNS = test system: SF-539 CNS
HOP-18 NSCLC = test system: HOP-18 NSCLC
XF 498 CNS = test system: XF 498 CNS
UO-31 renal = test system: UO-31 renal
HOP-62 NSCLC = test system: HOP-62 NSCLC
RPMI-8226 leukemia = test system: RPMI-8226 leukemia
MALME-3M melanoma = test system: MALME-3M melanoma
SNB-78 CNS = test system: SNB-78 CNS
TK-10 renal = test system: TK-10 renal
SK-MEL-28 melanoma = test system: SK-MEL-28 melanoma
LOX IMVI melanoma = test system: LOX IMVI melanoma
MOLT-4 leukemia = test system: MOLT-4 leukemia
DLD-1 colon = test system: DLD-1 colon
NCI-H460 lung = test system: NCI-H460 lung
KM20L2 colon = test system: KM20L2 colon
IGROV1 ovarian = test system: IGROV1 ovarian
RXF 393 renal = test system: RXF 393 renal
SK-MEL-5 melanoma = test system: SK-MEL-5 melanoma
LXFL 529 NSCLC = test system: LXFL 529 NSCLC
UACC-62 melanoma = test system: UACC-62 melanoma
HOP-92 NSCLC = test system: HOP-92 NSCLC
U251 CNS = test system: U251 CNS
SK-OV-3 ovarian = test system: SK-OV-3 ovarian
A498 renal = test system: A498 renal

COc1ccc(/C=C2\C(=O)N(C(=O)Cc3ccccc3)N=C2C)cc1OC
TGI (HCT-15 colon): > 100 µM
TGI (DMS 273 small cell lung): > 100 µM
TGI (SNB-19 CNS): > 100 µM
TGI (M14 melanoma): > 100 µM
TGI (HL-60(TB) leukemia): > 100 µM
TGI (NCI-H522 lung): > 100 µM
TGI (HT29 colon): > 100 µM
TGI (KM12 colon): > 100 µM
TGI (SF-268 CNS): > 100 µM
TGI (OVCAR-5 ovarian): > 100 µM
TGI (SW-620 colon): > 100 µM
TGI (ACHN renal): > 100 µM
TGI (SNB-75 CNS): > 100 µM
TGI (OVCAR-8 ovarian): > 100 µM
TGI (SR leukemia): > 100 µM
TGI (NCI-H23 lung): > 100 µM
TGI (OVCAR-4 ovarian): > 100 µM
TGI (CAKI-1 renal): > 100 µM
TGI (HCC-2998 colon): > 100 µM
TGI (SK-MEL-2 melanoma): > 100 µM
TGI (M19-MEL melanoma): > 100 µM
TGI (OVCAR-3 ovarian): > 100 µM
TGI (CCRF-CEM leukemia): > 100 µM
TGI (HCT-116 colon): > 100 µM
TGI (DMS 114 small cell lung): > 100 µM
TGI (SF-295 CNS): > 100 µM
TGI (SN12C renal): > 100 µM
TGI (786-0 renal): > 100 µM
TGI (COLO 205 colon): > 100 µM
TGI (EKVX NSCLC): > 100 µM
TGI (A549 NSCLC): > 100 µM
TGI (NCI-H226 lung): > 100 µM
TGI (UACC-257 melanoma): > 100 µM
TGI (K-562 leukemia): > 100 µM
TGI (SF-539 CNS): > 100 µM
TGI (HOP-18 NSCLC): > 100 µM
TGI (XF 498 CNS): > 100 µM
TGI (UO-31 renal): > 100 µM
TGI (HOP-62 NSCLC): > 100 µM
TGI (RPMI-8226 leukemia): > 100 µM
TGI (MALME-3M melanoma): > 100 µM
TGI (SNB-78 CNS): > 100 µM
TGI (TK-10 renal): > 100 µM
TGI (SK-MEL-28 melanoma): > 100 µM
TGI (LOX IMVI melanoma): > 100 µM
TGI (MOLT-4 leukemia): > 100 µM

CC1(Cl)CC2C(CC1Sc1nnnn1-c1ccccc1)C2(C)C (stereo not given)
TGI (HCT-15 colon): > 100 µM
TGI (DMS 273 small cell lung): > 100 µM
TGI (SNB-19 CNS): > 100 µM
TGI (M14 melanoma): > 100 µM
TGI (HL-60(TB) leukemia): 49.4 µM
TGI (HT29 colon): > 100 µM
TGI (KM12 colon): > 100 µM
TGI (SF-268 CNS): > 100 µM
TGI (OVCAR-5 ovarian): > 100 µM
TGI (SW-620 colon): > 100 µM
TGI (ACHN renal): > 100 µM
TGI (OVCAR-8 ovarian): > 100 µM
TGI (DLD-1 colon): > 100 µM
TGI (SR leukemia): > 100 µM
TGI (NCI-H23 lung): > 100 µM
TGI (OVCAR-4 ovarian): > 100 µM
TGI (NCI-H460 lung): > 100 µM
TGI (HCC-2998 colon): > 100 µM
TGI (SK-MEL-2 melanoma): > 100 µM
TGI (M19-MEL melanoma): > 100 µM
TGI (OVCAR-3 ovarian): > 100 µM
TGI (CCRF-CEM leukemia): > 100 µM
TGI (KM20L2 colon): > 100 µM
TGI (HCT-116 colon): > 100 µM
TGI (DMS 114 small cell lung): > 100 µM
TGI (SF-295 CNS): > 100 µM
TGI (SN12C renal): > 100 µM
TGI (IGROV1 ovarian): > 100 µM
TGI (COLO 205 colon): > 100 µM
TGI (RXF 393 renal): > 100 µM
TGI (SK-MEL-5 melanoma): > 100 µM
TGI (EKVX NSCLC): > 100 µM
TGI (A549 NSCLC): > 100 µM
TGI (NCI-H226 lung): > 100 µM
TGI (UACC-257 melanoma): > 100 µM
TGI (K-562 leukemia): > 100 µM
TGI (LXFL 529 NSCLC): > 100 µM
TGI (SF-539 CNS): > 100 µM
TGI (UACC-62 melanoma): > 100 µM
TGI (UO-31 renal): > 100 µM
TGI (HOP-62 NSCLC): > 100 µM
TGI (RPMI-8226 leukemia): > 100 µM
TGI (SNB-78 CNS): > 100 µM
TGI (TK-10 renal): > 100 µM
TGI (HOP-92 NSCLC): > 100 µM
TGI (SK-MEL-28 melanoma): > 100 µM
TGI (LOX IMVI melanoma): > 100 µM
TGI (MOLT-4 leukemia): > 100 µM

CN1C(=O)C(Cl)(C(Cl)(Cl)S(=O)(=O)O)C(=O)c2ccccc21 (stereo not given)
TGI (U251 CNS): > 100 µM
TGI (SNB-19 CNS): > 100 µM
TGI (M14 melanoma): > 100 µM
TGI (HL-60(TB) leukemia): > 100 µM
TGI (NCI-H522 lung): > 100 µM
TGI (HT29 colon): 73 µM
TGI (KM12 colon): > 100 µM
TGI (SF-268 CNS): > 100 µM
TGI (SW-620 colon): > 100 µM
TGI (ACHN renal): > 100 µM
TGI (SNB-75 CNS): > 100 µM
TGI (OVCAR-8 ovarian): > 100 µM
TGI (DLD-1 colon): > 100 µM
TGI (SR leukemia): > 100 µM
TGI (NCI-H23 lung): > 100 µM
TGI (OVCAR-4 ovarian): > 100 µM
TGI (CAKI-1 renal): > 100 µM
TGI (NCI-H460 lung): > 100 µM
TGI (HCC-2998 colon): > 100 µM
TGI (M19-MEL melanoma): > 100 µM
TGI (OVCAR-3 ovarian): > 100 µM
TGI (CCRF-CEM leukemia): > 100 µM
TGI (KM20L2 colon): 40.6 µM
TGI (HCT-116 colon): > 100 µM
TGI (SF-295 CNS): > 100 µM
TGI (SN12C renal): > 100 µM
TGI (786-0 renal): > 100 µM
TGI (IGROV1 ovarian): > 100 µM
TGI (SK-OV-3 ovarian): > 100 µM
TGI (COLO 205 colon): > 100 µM
TGI (RXF 393 renal): > 100 µM
TGI (SK-MEL-5 melanoma): > 100 µM
TGI (EKVX NSCLC): > 100 µM
TGI (A549 NSCLC): > 100 µM
TGI (NCI-H226 lung): > 100 µM
TGI (UACC-257 melanoma): > 100 µM
TGI (K-562 leukemia): > 100 µM
TGI (LXFL 529 NSCLC): > 100 µM
TGI (SF-539 CNS): > 100 µM
TGI (UACC-62 melanoma): > 100 µM
TGI (UO-31 renal): > 100 µM
TGI (HOP-62 NSCLC): > 100 µM
TGI (RPMI-8226 leukemia): > 100 µM
TGI (MALME-3M melanoma): 76.1 µM
TGI (TK-10 renal): > 100 µM
TGI (HOP-92 NSCLC): > 100 µM
TGI (SK-MEL-28 melanoma): > 100 µM
TGI (A498 renal): > 100 µM
TGI (LOX IMVI melanoma): > 100 µM
TGI (MOLT-4 leukemia): > 100 µM

N#CC(NNC(=O)c1ccccc1O)c1cccc(O)c1 (stereo not given)
TGI (U251 CNS): > 100 µM
TGI (HCT-15 colon): > 100 µM
TGI (DMS 273 small cell lung): > 100 µM
TGI (M14 melanoma): > 100 µM
TGI (HL-60(TB) leukemia): 73.9 µM
TGI (NCI-H522 lung): 98.5 µM
TGI (HT29 colon): > 100 µM
TGI (KM12 colon): > 100 µM
TGI (SF-268 CNS): > 100 µM
TGI (OVCAR-5 ovarian): > 100 µM
TGI (SW-620 colon): > 100 µM
TGI (ACHN renal): > 100 µM
TGI (SNB-75 CNS): > 100 µM
TGI (OVCAR-8 ovarian): > 100 µM
TGI (DLD-1 colon): > 100 µM
TGI (SR leukemia): > 100 µM
TGI (NCI-H23 lung): 21.3 µM
TGI (OVCAR-4 ovarian): > 100 µM
TGI (CAKI-1 renal): > 100 µM
TGI (NCI-H460 lung): > 100 µM
TGI (SK-MEL-2 melanoma): > 100 µM
TGI (OVCAR-3 ovarian): > 100 µM
TGI (CCRF-CEM leukemia): > 100 µM
TGI (KM20L2 colon): > 100 µM
TGI (HCT-116 colon): > 100 µM
TGI (DMS 114 small cell lung): 11.1 µM
TGI (SF-295 CNS): > 100 µM
TGI (SN12C renal): > 100 µM
TGI (786-0 renal): > 100 µM
TGI (IGROV1 ovarian): > 100 µM
TGI (SK-OV-3 ovarian): > 100 µM
TGI (COLO 205 colon): > 100 µM
TGI (RXF 393 renal): 85.3 µM
TGI (SK-MEL-5 melanoma): > 100 µM
TGI (A549 NSCLC): > 100 µM
TGI (NCI-H226 lung): 88.5 µM
TGI (UACC-257 melanoma): > 100 µM
TGI (K-562 leukemia): > 100 µM
TGI (LXFL 529 NSCLC): > 100 µM
TGI (SF-539 CNS): 18.5 µM
TGI (HOP-18 NSCLC): > 100 µM
TGI (UO-31 renal): 5.63 µM
TGI (HOP-62 NSCLC): > 100 µM
TGI (RPMI-8226 leukemia): > 100 µM
TGI (MALME-3M melanoma): > 100 µM
TGI (SNB-78 CNS): > 100 µM
TGI (TK-10 renal): > 100 µM
TGI (HOP-92 NSCLC): > 100 µM
TGI (SK-MEL-28 melanoma): > 100 µM
TGI (LOX IMVI melanoma): > 100 µM
TGI (MOLT-4 leukemia): > 100 µM
